Source: patent US9890315B2, “Use of polylysine as a shale inhibitor” (BASF SE, priority 2011, dated 2018)

Experiments:
[1] = Performance test: Fann rheology and gel strength of bentonite suspension with shale inhibitor; settings: 7.14 g/l Shale Inhibitor and 85.7 g/l Bentonite
Description: 350 ml of tap water are introduced into a beaker, 2.5 g of the shale inhibitor (calculated as dry mass—i.e. quaternized or non-quaternized polylysine or a prior art product) are added and the mixture is stirred for 20 min. The solution is transferred into an HB mixing cup. 30 g of Cebogel® NT (Bentonite, Cebo Holland B.V., The Netherlands) are added as a model substance for shale and the mixture is stirred at low speed for 10 min. Subsequently, the Fann rheology and the gel strength are determined.

[2] = OECD 306: Biodegradability in Seawater, Closed Bottle Method
Description: According to the method described in “OECD Guidelines for Testing of Chemicals—1992 OECD 306: Biodegradability in Seawater, Closed Bottle Method”, the biodegradability of the quaternized polylysine according to Example 3a, of Comp. sample 2 (Ultrahib®) and of a reference substance (sodium benzoate) was evaluated after 28 days and 60 days.

| Structure (SMILES) | Fann 35 values 3 ([1]; tap water) [Pa] | Fann 35 values 6 ([1]; tap water) [Pa] | Fann 35 values 100 ([1]; tap water) [Pa] | Fann 35 values 200 ([1]; tap water) [Pa] | Fann 35 values 300 ([1]; tap water) [Pa] | Fann 35 values 600 ([1]; tap water) [Pa] | Gel strength 10′ ([1]; tap water) [Pa] | Gel strength 10″ ([1]; tap water) [Pa] | PV ([1]; tap water) [mPa*s] | YP ([1]; tap water) [Pa] | pH ([1]; pH of the test mixture) | biodegradability Day 28 ([2]; after 28 days) [%] | biodegradability Day 60 ([2]; after 60 days) [%] |
| --- | --- | --- | --- | --- | --- | --- | --- | --- | --- | --- | --- | --- | --- |
| C[N+](C)(C)CCO.[Cl-] [Comp. 3, Cholinchlorid] | 4 | 4 | 5 | 6 | 6 | 8 | 3 | 3 | 3 | 5 | 9.1 |  |  |
| O=C([O-])c1ccccc1.[Na+] [Reference, sodium benzoate] |  |  |  |  |  |  |  |  |  |  |  | 80 | 70 |
